Patent US20250163075A1, “HETEROBI[…] PROTEIN […]” (priority 2023, published 2025)

Key:
KLHDC2 [1] = target: T1, KLHDC2 (Homo sapiens (Human), UniProt Q9Y2U9); assay: Sypro orange thermal stability (thermal shift) assay; assay type: binding
Protocol: To identify small molecules that bind to KLHDC2 the Sypro orange thermal stability assay was utilized. […] Assay solution containing 0.5 μM KLHDC2, 25 mM HEPES, 200 mM NaCl and 5% Sypro Orange pH 7.5 was added to a final volume of 20 ul and a final experimental ligand concentration of 50 uM. DMSO alone was included as a negative control and peptide sub2 was included as a positive control at 100 uM. The fluorescence of Sypro orange in each sample was measured on a Quantstudio 5 or a Quantstudio 6 at temperatures ranging from 23 to 75° C. at 0.05° C./second. Data reduction resulting in thermal stability (calculated using the Boltzmann and first derivative minima equations) was completed in the Thermo Scientific protein thermal shift software v1.4.

KLHDC2 [2] = target: T1, KLHDC2; assay: Time-resolved fluorescence energy transfer (TR-FRET) assay with Bodipy-labeled ligand probe; assay type: binding
Source text: The integration start was set to 100 μs, and the integration time was set to 200 μs. The number of flashes was fixed at 100.

T1 sequence (Q9Y2U9 whole entry): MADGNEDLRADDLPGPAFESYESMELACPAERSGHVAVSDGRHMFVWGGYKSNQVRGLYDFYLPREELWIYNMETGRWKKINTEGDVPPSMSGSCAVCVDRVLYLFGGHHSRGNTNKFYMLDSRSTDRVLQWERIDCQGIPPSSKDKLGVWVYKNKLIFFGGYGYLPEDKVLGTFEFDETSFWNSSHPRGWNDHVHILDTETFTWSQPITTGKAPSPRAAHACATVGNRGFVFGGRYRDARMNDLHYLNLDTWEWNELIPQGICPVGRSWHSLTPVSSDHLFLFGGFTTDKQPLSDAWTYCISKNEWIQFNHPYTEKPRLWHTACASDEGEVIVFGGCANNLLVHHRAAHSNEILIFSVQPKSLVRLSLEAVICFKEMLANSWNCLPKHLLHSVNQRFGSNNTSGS

| SMILES | ΔTm (° C.) 50 μM ligand (KLHDC2 [1]; Table 1, 0.5 μM KLHDC2) [°C] | IC50 (KLHDC2 [2]; Table 1) [µM] | ΔTm (° C.) 50 μM ligand (KLHDC2 [1]; Table 2, 0.5 μM KLHDC2) [°C] | IC50 (KLHDC2 [2]; Table 2) [µM] |
| --- | --- | --- | --- | --- |
| O=C(O)CNC(=O)Cc1csc(-c2cccc3ccccc23)n1 [Compound 12, (2-(2-(Naphthalen-1-yl)Thiazol-4-yl)Acetyl)Glycine] | 3.7 ± 0.0 | 8.8 |  |  |
| O=C(O)CNC(=O)Cc1csc(-c2ccc3cc[nH]c3c2)n1 [Compound 23, (2-(2-(1H-Indol-6-yl)Thiazol-4-yl)Acetyl)Glycine] |  | 1.1 |  |  |
| O=C(O)CNC(=O)Cc1csc(-c2ccc3c(c2)NCCO3)n1 [Compound 27, (2-(2-(3,4-Dihydro-2H-Benzo[B][1,4]Oxazin-6-yl)Thiazol-4-yl)Acetyl)Glycine] |  | 3 |  |  |
| O=C(O)CNC(=O)Cc1csc(-c2ccc3cccc(OCCN4CCNCC4)c3c2)n1 [Compound 19, (2-(2-(8-(2-(Piperazin-1-yl)Ethoxy)Naphthalen-2-yl)Thiazol-4-yl)Acetyl)Glycine] |  |  | 4.8 ± 0.0 | 1.6 |
| O=C(O)CNC(=O)Cc1csc(-c2cccc3cccnc23)n1 [Compound 11, (2-(2-(Quinolin-8-yl)Thiazol-4-yl)Acetyl)Glycine] | 2.7 ± 0.4 | 7.1 |  |  |
| COCCOc1cccc2ccc(-c3nc(CC(=O)NCC(=O)O)cs3)cc12 [Compound 15A] |  |  | 4.3 ± 0.2 | 1.1 |
| COCOc1ccc(-c2nc(CC(=O)NCC(=O)O)cs2)c(Cl)c1 [i] | 3.52 ± 0.424 | 24.1 |  |  |
| O=C(O)CNC(=O)Cc1csc(-c2ccc3ccn(CCCN4CCNCC4)c3c2)n1 [Compound 24, (2-(2-(1-(3-(Piperazin-1-yl)Propyl)-1H-Indol-6-yl)Thiazol-4-yl)Acetyl)Glycine] |  |  |  | 1.2 |
| O=C(O)CNC(=O)Cc1csc(-c2ccc3ccccc3c2F)n1 [Compound 13, (2-(2-(1-Fluoronaphthalen-2-yl)Thiazol-4-yl)Acetyl)Glycine] | 6.0 ± 0.2 | 1.8 |  |  |
| COc1ccc2cc(-c3nc(CC(=O)NCC(=O)O)cs3)ccc2c1 [Compound 10, (2-(2-(6-Methoxynaphthalen-2-yl)Thiazol-4-yl)Acetyl)Glycine] | 3.9 ± 0.1 | 9.6 |  |  |
| COc1ccc2ccc(-c3nc(CC(=O)NCC(=O)O)cs3)cc2c1 [Compound 14, (2-(2-(7-Methoxynaphthalen-2-yl)Thiazol-4-yl)Acetyl)Glycine] | 4.3 ± 0.2 | 1.7 |  |  |
| O=C(O)CNC(=O)Cc1csc(-c2cccc3ccncc23)n1 [Compound 9, (2-(2-(Isoquinolin-8-yl)Thiazol-4-yl)Acetyl)Glycine] | 1.8 ± 0.0 | 20.3 |  |  |
| O=C(O)CNC(=O)Cc1csc(-c2ccc3ccccc3c2)n1 [Compound 8, (2-(2-(Naphthalen-2-yl)Thiazol-4-yl)Acetyl)Glycine] | 6.0 ± 0.0 | 3.9 |  |  |
